Patent US8815249B2 (priority 1999, dated 2014)
Where two headings read alike, the source gives them in different places. Non-standard residues stand in square brackets, D forms with d. Ava = NCCCCC(=O)O

Key:
[1] = system: normal donor (DR0701) PBMC; format: cell-based, human
[2] = system: normal donor (DR0402) PBMC; format: cell-based, human
[3] = system: HIV gp160(843-855) peptide; format: in vivo; settings: B10.A (5R) mice, peptides in saline solution, serum day 35
Method: An ELISA assay for antibody responses following immunization with the experimental peptides indicated above was performed as follows. Fifty microliters (μl) of a solution of the coating peptide at 2 μg/well in 0.1 M carbonate buffer, pH 9.5 was added to each well of a 96-well Nunc-immunoplate (#442404) for an overnight incubation at 4° C. After aspiration, 250 μl of phosphate-buffer saline solution containing 3% fetal bovine serum (assay diluent) was added to each well for 2 hr at RT. After washing three times with assay diluent, 50 μl of 20-times diluted mouse serum in 1:3 serial dilution in assay diluent was added to each well for 2 hr at RT. After washing three times with assay diluent, 50 μl of 1 ÿg/ml biotinylated goat anti-mouse IgG1 or IgG2a was added to each well and incubated for 1 hr at RT. After washing three times with assay diluent, 50 μl of streptavidin-horse radish peroxidase conjugate (1:1000) was added to each well and incubated for 30 min at RT. After washing three times with assay diluent, 100 μl of tetramethylbenzidine/H2O2 solution (Pharmingen 264KK) was added to each well for 15 min in the dark at room temperature. The reaction was stopped with 100 μl 1N H2SO4 in each well and the absorbance was read immediately at 450 nm.
B10.A (5R) mice (H-2^k/b) were immunized with 20 nmole of peptides in 50 μl phosphate-buffered saline solution, intramuscularly in right and left rear legs on days 1 and 2, respectively. On day 14 the mice were boosted intramuscularly with 40 nmole of peptides in 200 μl Hank's balanced salts solution intramuscularly in a rear leg. On day 30 the mice were boosted intravenously with 40 nmole peptides dissolved in Hank's balanced salts solution (HBSS). On day 35 the mice were sacrificed and serum samples were assayed for antibody titers against the HIV gp160(843-855) peptide.

Row | Substance | IFN-γ spots pulsed [1] [spots] | IFN-γ spots unpulsed [1] [spots] | IFN-γ spots pulsed [2] [spots] | IFN-γ spots unpulsed [2] [spots] | also measured
1 | AE-Her-38 (Ac-LRMK[Ava]SPYVSRLLGICL-NH2; SMILES CC[C@H](C)[C@H](NC(=O)CNC(=O)[C@H](CC(C)C)NC(=O)[C@H](CC(C)C)NC(=O)[C@H](CCCNC(=N)N)NC(=O)[C@H](CO)NC(=O)[C@@H](NC(=O)[C@H](Cc1ccc(O)cc1)NC(=O)[C@@H]1CCCN1C(=O)[C@H](CO)NC(=O)CCCCNC(=O)[C@H](CCCCN)NC(=O)[C@H](CCSC)NC(=O)[C@H](CCCNC(=N)N)NC(=O)[C@H](CC(C)C)NC(C)=O)C(C)C)C(=O)N[C@@H](CS)C(=O)N[C@@H](CC(C)C)C(N)=O) | 210 | 27 |  |  | 
2 | AE-TYR-6 (Ac-LRMK[Ava]HIYMDGTMSQVQGSA-NH2; SMILES CC[C@H](C)[C@H](NC(=O)[C@H](Cc1c[nH]cn1)NC(=O)CCCCNC(=O)[C@H](CCCCN)NC(=O)[C@H](CCSC)NC(=O)[C@H](CCCNC(=N)N)NC(=O)[C@H](CC(C)C)NC(C)=O)C(=O)N[C@@H](Cc1ccc(O)cc1)C(=O)N[C@@H](CCSC)C(=O)N[C@@H](CC(=O)O)C(=O)NCC(=O)N[C@H](C(=O)N[C@@H](CCSC)C(=O)N[C@@H](CO)C(=O)N[C@@H](CCC(N)=O)C(=O)N[C@H](C(=O)N[C@@H](CCC(N)=O)C(=O)NCC(=O)N[C@@H](CO)C(=O)N[C@@H](C)C(N)=O)C(C)C)[C@@H](C)O) |  |  | 650 | 280 | 
3 | Ac-LRMK-ava-ava-AYRAIRHIPR-NH2 (Ac-LRMK[Ava][Ava]AYRAIRHIPR-NH2; SMILES CC[C@H](C)[C@H](NC(=O)[C@H](C)NC(=O)[C@H](CCCNC(=N)N)NC(=O)[C@H](Cc1ccc(O)cc1)NC(=O)[C@H](C)NC(=O)CCCCNC(=O)CCCCNC(=O)[C@H](CCCCN)NC(=O)[C@H](CCSC)NC(=O)[C@H](CCCNC(=N)N)NC(=O)[C@H](CC(C)C)NC(C)=O)C(=O)N[C@@H](CCCNC(=N)N)C(=O)N[C@@H](Cc1c[nH]cn1)C(=O)N[C@H](C(=O)N1CCC[C@H]1C(=O)N[C@@H](CCCNC(=N)N)C(N)=O)[C@@H](C)CC) [Ii-Key/two-ava/gp160(843-855)] |  |  |  |  | Antibody induction, ELISA against HIV gp160(843-855) peptide ([3]; Dilution^−1 20): 0.131; Antibody induction, ELISA against HIV gp160(843-855) peptide ([3]; Dilution^−1 60): 0.039; Antibody induction, ELISA against HIV gp160(843-855) peptide ([3]; Dilution^−1 180): 0.027; Antibody induction, ELISA against HIV gp160(843-855) peptide ([3]; Dilution^−1 540): 0.003
4 | AE-TYR-2 (Ac-HNALHIYMDGTMSQVQGSA-NH2) |  |  | 360 | 140 | 
5 | AE-TYR-1 (Ac-ALHIYMDGTMSQVQGSA-NH2) |  |  | 120 | 0 | 
6 | AE-Her-48 (Ac-LRMK[Ava]VGSPYVSRLLGICL-NH2; SMILES CC[C@H](C)[C@H](NC(=O)CNC(=O)[C@H](CC(C)C)NC(=O)[C@H](CC(C)C)NC(=O)[C@H](CCCNC(=N)N)NC(=O)[C@H](CO)NC(=O)[C@@H](NC(=O)[C@H](Cc1ccc(O)cc1)NC(=O)[C@@H]1CCCN1C(=O)[C@H](CO)NC(=O)CNC(=O)[C@@H](NC(=O)CCCCNC(=O)[C@H](CCCCN)NC(=O)[C@H](CCSC)NC(=O)[C@H](CCCNC(=N)N)NC(=O)[C@H](CC(C)C)NC(C)=O)C(C)C)C(C)C)C(=O)N[C@@H](CS)C(=O)N[C@@H](CC(C)C)C(N)=O) | 1770 | 212 |  |  | 
7 | AE-Her-47 (Ac-LRMK[Ava]GSPYVSRLLGICL-NH2; SMILES CC[C@H](C)[C@H](NC(=O)CNC(=O)[C@H](CC(C)C)NC(=O)[C@H](CC(C)C)NC(=O)[C@H](CCCNC(=N)N)NC(=O)[C@H](CO)NC(=O)[C@@H](NC(=O)[C@H](Cc1ccc(O)cc1)NC(=O)[C@@H]1CCCN1C(=O)[C@H](CO)NC(=O)CNC(=O)CCCCNC(=O)[C@H](CCCCN)NC(=O)[C@H](CCSC)NC(=O)[C@H](CCCNC(=N)N)NC(=O)[C@H](CC(C)C)NC(C)=O)C(C)C)C(=O)N[C@@H](CS)C(=O)N[C@@H](CC(C)C)C(N)=O) | 380 | 23 |  |  | 
8 | Ac-LRMK-ava-AYRAIRHIPR-NH2 (Ac-LRMK[Ava]AYRAIRHIPR-NH2; SMILES CC[C@H](C)[C@H](NC(=O)[C@H](C)NC(=O)[C@H](CCCNC(=N)N)NC(=O)[C@H](Cc1ccc(O)cc1)NC(=O)[C@H](C)NC(=O)CCCCNC(=O)[C@H](CCCCN)NC(=O)[C@H](CCSC)NC(=O)[C@H](CCCNC(=N)N)NC(=O)[C@H](CC(C)C)NC(C)=O)C(=O)N[C@@H](CCCNC(=N)N)C(=O)N[C@@H](Cc1c[nH]cn1)C(=O)N[C@H](C(=O)N1CCC[C@H]1C(=O)N[C@@H](CCCNC(=N)N)C(N)=O)[C@@H](C)CC) [Ii-Key/one-ava/gp160(843-855)] |  |  |  |  | Antibody induction, ELISA against HIV gp160(843-855) peptide ([3]; Dilution^−1 20): 0.600; Antibody induction, ELISA against HIV gp160(843-855) peptide ([3]; Dilution^−1 60): 0.157; Antibody induction, ELISA against HIV gp160(843-855) peptide ([3]; Dilution^−1 180): 0.073; Antibody induction, ELISA against HIV gp160(843-855) peptide ([3]; Dilution^−1 540): 0.024
9 | AE-Her-39 (Ac-LRMK[Ava]GVGSPYVSRLLGICL-NH2; SMILES CC[C@H](C)[C@H](NC(=O)CNC(=O)[C@H](CC(C)C)NC(=O)[C@H](CC(C)C)NC(=O)[C@H](CCCNC(=N)N)NC(=O)[C@H](CO)NC(=O)[C@@H](NC(=O)[C@H](Cc1ccc(O)cc1)NC(=O)[C@@H]1CCCN1C(=O)[C@H](CO)NC(=O)CNC(=O)[C@@H](NC(=O)CNC(=O)CCCCNC(=O)[C@H](CCCCN)NC(=O)[C@H](CCSC)NC(=O)[C@H](CCCNC(=N)N)NC(=O)[C@H](CC(C)C)NC(C)=O)C(C)C)C(C)C)C(=O)N[C@@H](CS)C(=O)N[C@@H](CC(C)C)C(N)=O) | 160 | 24 |  |  | 
10 | AE-TYR-3 (Ac-LRMK[Ava]NALHIYMDGTMSQVQGSA-NH2; SMILES CC[C@H](C)[C@H](NC(=O)[C@H](Cc1c[nH]cn1)NC(=O)[C@H](CC(C)C)NC(=O)[C@H](C)NC(=O)[C@H](CC(N)=O)NC(=O)CCCCNC(=O)[C@H](CCCCN)NC(=O)[C@H](CCSC)NC(=O)[C@H](CCCNC(=N)N)NC(=O)[C@H](CC(C)C)NC(C)=O)C(=O)N[C@@H](Cc1ccc(O)cc1)C(=O)N[C@@H](CCSC)C(=O)N[C@@H](CC(=O)O)C(=O)NCC(=O)N[C@H](C(=O)N[C@@H](CCSC)C(=O)N[C@@H](CO)C(=O)N[C@@H](CCC(N)=O)C(=O)N[C@H](C(=O)N[C@@H](CCC(N)=O)C(=O)NCC(=O)N[C@@H](CO)C(=O)N[C@@H](C)C(N)=O)C(C)C)[C@@H](C)O) |  |  | 310 | 70 | 
11 | AE-Her-37 (Ac-LRMKGVGSPYVSRLLGICL-NH2) | 560 | 65 |  |  | 
12 | AE-Her-36 (Ac-GVGSPYVSRLLGICL-NH2; listed as Homo sapiens) | 100 | 4 |  |  | 
13 | AE-TYR-4 (Ac-LRMK[Ava]ALHIYMDGTMSQVQGSA-NH2; SMILES CC[C@H](C)[C@H](NC(=O)[C@H](Cc1c[nH]cn1)NC(=O)[C@H](CC(C)C)NC(=O)[C@H](C)NC(=O)CCCCNC(=O)[C@H](CCCCN)NC(=O)[C@H](CCSC)NC(=O)[C@H](CCCNC(=N)N)NC(=O)[C@H](CC(C)C)NC(C)=O)C(=O)N[C@@H](Cc1ccc(O)cc1)C(=O)N[C@@H](CCSC)C(=O)N[C@@H](CC(=O)O)C(=O)NCC(=O)N[C@H](C(=O)N[C@@H](CCSC)C(=O)N[C@@H](CO)C(=O)N[C@@H](CCC(N)=O)C(=O)N[C@H](C(=O)N[C@@H](CCC(N)=O)C(=O)NCC(=O)N[C@@H](CO)C(=O)N[C@@H](C)C(N)=O)C(C)C)[C@@H](C)O) |  |  | 620 | 340 | 
